# In patent US7655695B2, “Illudin analogs useful as anticancer agents” (The Regents of The University of California, priority 2005, dated 2010):
# Like-named read-outs stand apart in the source and are kept apart here.
# Assays:
# HT29 colon carcinoma = experiment: MTS viability assay, 1 hour exposure, HT29; format: cell-based; conditions: Homo sapiens, HT-29, HT29, 1 hour exposure
# Method: (§1) Using four different cell lines, HT29 colon, OVCAR-3 ovarian, AsPC-1 pancreatic, and PC-3 prostate carcinoma, the IC50 values of compound 6 and irofulven were established for one hour incubations using the MTS viability assay (Buttke T. M. et al., J Immunol Methods. 1993, 157, 233).
# [1] = system: OVCAR-3 ovarian carcinoma; experiment: MTS viability assay, 1 hour exposure, OVCAR-3; format: cell-based; conditions: Homo sapiens, OVCAR-3, 1 hour exposure
# Method: as §1
# [2] = system: AsPC-1 pancreatic carcinoma; experiment: MTS viability assay, 1 hour exposure, AsPC-1; format: cell-based
# Method: as §1
# PC-3 prostate carcinoma = experiment: MTS viability assay, 1 hour exposure, PC-3; format: cell-based; conditions: PC-3, 1 hour exposure
# Method: as §1
# [3] = system: subcutaneous MV522 tumors; experiment: MV522 mouse xenograft model; format: in vivo; conditions: 3/wk for 21 d; for PR (Partial Response): mice with partial response/mice
# Method: The MV522 xenograft model was used to test the in vivo activity of compounds 6 and 7 as previously described (Kelner M. J. et al., Invest New Drugs. 1996, 14, 161). Mice bearing subcutaneous MV522 tumors were dosed intraperitoneally three times a week for three weeks (3/wk for 21 d) at 10 mg/kg of irofulven, doses ranging from 7.5 to 10 mg/kg for compound 6, or 5 to 15 mg/kg for compound 7 (FIGS. 1 and 2 and Table 3). Compound 6 had potent anti-tumor activity against MV522 tumors, producing 4/6 and 5/5 partial responses in mice treated with 7.5 and 10 mg/kg doses, respectively.
# The MV522 xenograft model was used to test the in vivo activity of Compound 6 administration on a weekly schedule. Nude mice bearing subcutaneous MV522 tumors were dosed intraperitoneally (IP) 1/wk for 14 d at 17.5 mg/kg Compound 6 vs 7.5 mg/kg Compound 6 or 10 mg/kg irofulven on the intermittent schedule (3/wk for 21 d). The comparator dosages were the previously-determined efficacious MTDs for the 3/wk for 21 d schedule (FIG. 5).
# [4] = Plasma stability in pooled fresh human plasma at 37° C., LC/MS/MS; format: in vitro ADME
# Excerpt: Compounds 6 and 7 were compared against irofulven for their respective plasma stability (e.g., the enhanced stability or in vivo terminal phase elimination half life (T½) of a compound in plasma; it is believed that the greater the stability and T½ the more likely it is that the compound will be incorporated into or have an effect on a cancerous cell, such as cells of a tumor or a hematologic cancerous cell). Pooled fresh human plasma was spiked with each analog, and the compound stability profile was measured at 37° C. using LC/MS/MS. […] These properties differentiate Compounds 6 and 7 from irofulven and may have enhanced therapeutic potential. The increased plasma stability of Compound 6 may be particularly advantageous in drug formulation and delivery as it relates to increased exposure of the tumor to the drug. Thus, compound 6 has increased stability in human plasma in vitro (FIG. 3).
# [5] = Pharmacokinetics after single intravenous administration in male CD-1 mice; format: in vivo, mouse; conditions: for clearance: read-out: CLp (converted); for Vd: read-out: Vdss
# Method: The pharmacokinetics (PK) of Compound 6 was investigated in the CD-1 male mouse. A single intravenous administration of 5 mg/kg was followed by sequential blood collections and analysis of plasma by LC/MS/MS.
# [6] = Maximum tolerated dose on the 3/wk for 21 d schedule; conditions: nude, mouse, in vivo, IP, read-out: previously-determined efficacious MTD
# Method: A novel dosing schedule for acyfulvene analogs is described herein. This dosing schedule requires less frequent administration of individual dosages exceeding the previously-determined maximum tolerated dose (MTD) for each dose on an intermittent schedule of 3/wk for 21 d. For example, compound 6 was tested on a dosing schedule of 1/wk for 14 d. On this schedule, the total cumulative dose was less than the total cumulative dose administered on the 3/wk for 21 d-schedule, but with equal efficacy (FIG. 5). The 3/wk for 21 d dosing schedule is a standard method of administration for irofulven. The 1/wk for […] schedule for Compound 6 disclosed herein was unexpected based on prior work and presents a unique opportunity to administer less total dose of a cytotoxic chemotherapeutic less frequently and thereby reduce the overall toxic effect on the patient. This represents an increase in human safety and compliance, as a weekly dosing schedule is easier to follow than a more frequent dosing schedule.
# The MV522 xenograft model was used to test the in vivo activity of Compound 6 administration on a weekly schedule. […] The comparator dosages were the previously-determined efficacious MTDs for the 3/wk for 21 d schedule (FIG. 5).
# MV522 lung cancer cells = experiment: Thymidine incorporation into cellular DNA, 2 hour exposure, MV522 tumor cell line; format: cell-based; conditions: MV522, 2 hour exposure
# Excerpt: The anti-cancer activities of compounds 6, 7, 14, 16, 18, 20, 21 and 22 were compared to that of irofulven, 3, using MV522 lung cancer cells in vitro (See Kelner M. J. et al., Cancer Res. 1987, 47, 3186).
# [7] = Homo sapiens, ASPC1, AsPC-1, 1 hour exposure, read-out: GI50
# [8] = mouse, plasma, 5 mg/kg single IV
# [9] = mouse, plasma, 5 mg/kg IV, concentrations extrapolated from a 12.9 mg/kg IV dose
smiles,measurement,setting,value
"CC1=C(CN(O)C(N)=O)C2=C(C)C3(CC3)[C@@](C)(O)C(=O)C2=C1 [Compound 6, N-hydroxy-N-(methylacylfulvene)urea]",GI50,HT29 colon carcinoma,0.68 µg/mL
same,GI50,[1],0.6 µg/mL
same,GI50,"[2]; AsPC-1, 1 hour exposure",greater potency
same,GI50,[2]; [7],16 µg/mL
same,GI50,PC-3 prostate carcinoma,0.41 µg/mL
same,% Tumor Growth Inhibition,[3]; 7.5 mg/kg i.p.,100%
same,Relative Mean Tumor Weight (Wt/Wi),[3]; 7.5 mg/kg i.p.,0.9
same,PR (Partial Response),[3]; 7.5 mg/kg i.p.,4/6
same,% Tumor Growth Inhibition,[3]; 10 mg/kg i.p.,100%
same,Relative Mean Tumor Weight (Wt/Wi),[3]; 10 mg/kg i.p.,0.3
same,PR (Partial Response),[3]; 10 mg/kg i.p.,5/5
same,stability in human plasma compared with irofulven,[4],more stable
same,AUC(0-t),[5]; 5 mg/kg single IV,greater
same,CLp,[5]; 5 mg/kg single IV,reduced
same,Cmax,[5]; 5 mg/kg single IV,greater
same,T1/2,[5]; 5 mg/kg single IV,significantly longer
same,Vdss,[5]; 5 mg/kg single IV,reduced
same,AUC(0-inf),[5]; [8],2200 ng·h/mL
same,half-life,[5]; [8],2.36 h
same,AUC(0-t),"[5]; mouse, plasma, 5 mg/kg single IV, read-out: AUC (0-t)",2200 ng·h/mL
same,clearance,[5]; [8],37.8 mL/min/kg
same,Cmax,"[5]; mouse, plasma, 5 mg/kg single IV, read-out: Cmax",9730 ng/mL
same,Vd,[5]; [8],0.548 L/kg
same,MTD at 21 d,[6],7.5 mg/kg
"CC(=O)ON(CC1=C(C)C=C2C(=O)[C@](C)(O)C3(CC3)C(C)=C21)C(N)=O [Compound 7, N-Acetoxy-N-(methylacylfulvene)urea]",% Tumor Growth Inhibition,[3]; 5 mg/kg i.p.,56%
same,Relative Mean Tumor Weight (Wt/Wi),[3]; 5 mg/kg i.p.,4.5
same,% Tumor Growth Inhibition,"[3]; 5 mg/kg i.p., listed as compound 7",56%
same,% Tumor Growth Inhibition,[3]; 10 mg/kg i.p.,79%
same,Relative Mean Tumor Weight (Wt/Wi),[3]; 10 mg/kg i.p.,2.2
same,% Tumor Growth Inhibition,"[3]; 10 mg/kg i.p., listed as compound 7",79%
same,% Tumor Growth Inhibition,[3]; 15 mg/kg i.p.,100%
same,Relative Mean Tumor Weight (Wt/Wi),[3]; 15 mg/kg i.p.,0.7
same,PR (Partial Response),[3]; 15 mg/kg i.p.,4/6
same,stability in human plasma compared with irofulven,[4],less stable
"CC1=C(CO)C2=C(C)C3(CC3)[C@@](C)(O)C(=O)C2=C1 [Irofulven, 6-hydroxymethylacylfulvene, reference compound]",IC50,MV522 lung cancer cells,1200 ± 100 nM
same,GI50,HT29 colon carcinoma,1.4 µg/mL
same,GI50,[1],0.15 µg/mL
same,GI50,[2]; [7],> 100 µg/mL
same,GI50,PC-3 prostate carcinoma,0.58 µg/mL
same,% Tumor Growth Inhibition,[3]; 10 mg/kg i.p.,100%
same,Relative Mean Tumor Weight (Wt/Wi),[3]; 10 mg/kg i.p.,0.8
same,PR (Partial Response),[3]; 10 mg/kg i.p.,6/7
same,AUC(0-inf),[5]; [9],695 ng·h/mL
same,half-life,[5]; [9],0.0988 h
same,AUC(0-t),"[5]; mouse, plasma, 5 mg/kg IV, concentrations extrapolated from a 12.9 mg/kg IV dose, read-out: AUC (0-t)",691 ng·h/mL
same,clearance,[5]; [9],120 mL/min/kg
same,Cmax,"[5]; mouse, plasma, 5 mg/kg IV, concentrations extrapolated from a 12.9 mg/kg IV dose, read-out: Cmax",5650 ng/mL
same,Vd,[5]; [9],0.948 L/kg
same,MTD at 21 d,[6],10 mg/kg
